# Data from ChEMBL document CHEMBL3045860, “The effect of sodium bicarbonate alone or in combination with a reduced dose of tebuconazole on the control of apple scab” (Crop Prot, 2006).
# Legend:
# Type in all cases: organism-based
# Conditions in all cases: in vivo
# Malus domestica [1] = assay: Phytotoxicity in Malus x domestica (apple) assessed as width of harvested fruit at 0.025% […] (reference value: 76 mm)
# Malus domestica [2] = assay: Phytotoxicity in Malus x domestica (apple) assessed as total soluble solid of harvested fruit at 0.025% by refractometric analysis (reference value: 14%)
# Malus domestica [3] = assay: Phytotoxicity in Malus x domestica (apple) assessed as mass of harvested fruit at 0.025% […] (reference value: 181 g)
# Malus domestica [4] = assay: Phytotoxicity in Malus x domestica (apple) assessed as length of harvested fruit at 0.025% […] (reference value: 63.3 mm)
structure (smiles),measurement,setting,value
CC(C)(C)C(O)(CCc1ccc(Cl)cc1)Cn1cncn1 (centres undefined) [TEBUCONAZOLE],Activity,Malus domestica [1],80.3 mm
same,Activity,Malus domestica [2],14.1%
same,Activity,Malus domestica [3],229 g
same,Activity,Malus domestica [4],68 mm
